{"source": "patent US20250296937A1", "about": "“CYCLIC BISBENZYL TETRAHYDROISOQUINOLINE COMPOUND, AND PREPARATION METHOD THEREFOR AND USE THEREOF” (Shanghai Institute of Materia Medica, Chinesse Academy of …, priority 2021, published 2025)", "key": {"[1]": {"test_system": "Raw 264.7 cells", "assay": "Cell viability in TNF-α induced inflammation model of Raw 264.7 cells (CCK-8)", "format": "cell-based", "conditions": "10 ng/ml TNF-α, 1 μM compound, 16 hours", "procedure": "In this embodiment, the effect of compounds on TNF-α-induced inflammation levels in Raw 264.7 cells was analyzed by cell viability combined with inflammatory factor expression levels; cell viability was analyzed by CCK-8 assay; and mRNA expression levels of inflammation-associated indicators were detected by real-time quantitative PCR (Q-PCR) method. Raw 264.7 cells were purchased from ATCC, CCK-8 kit was purchased from Meilunbio, item number MA0218-3, TNF-α was purchased from Merck, item no. GF314.\nExperimental methods: first, 8000 cells/well Raw 264.7 cells were placed in 96-well plates and incubated overnight. On the second day, 0.1% DMSO was added to the control cells, 10 ng/ml TNF-α as well as 0.1% DMSO was added to the model group, 10 ng/ml TNF-α as well as 1 μM of the compounds (oxyacanthine hydrochloride (oxy), 1, 2, tetrandrine (tet), 3, 4, 6, 58) was added to the treatment group, and the 96-well plates were sterilized and incubated in a constant temperature incubator for 16 hours. Finally, the viability of the cells was detected using the CCK-8 kit."}, "[2]": {"biological_target": "novel coronavirus envelope protein (2-E) ion channel (Severe acute respiratory syndrome coronavirus 2, UniProt P0DTC4)", "sequence (P0DTC4 whole entry, looked up)": "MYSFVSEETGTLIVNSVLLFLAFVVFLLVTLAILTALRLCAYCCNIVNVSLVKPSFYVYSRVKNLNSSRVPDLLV", "assay": "Novel coronavirus envelope protein (2-E) ion channel activity test, planar lipid bilayer (BLM)", "format": "biochemical, SARS-CoV-2", "conditions": "room temperature, 1, 10, 50, 100 μM, read-out: Inhibition against 2-E ion channels IC50"}, "[3]": {"test_system": "A549 lung epithelial cells", "assay": "Anti TGF-β1-induced fibrosis assay in A549 lung epithelial cells (microscopy, Western Blot)", "format": "cell-based", "conditions": "10 ng/ml TGF-β1, 1 μM compound", "procedure": "Cell injury was observed by microscopic observation; cell viability was analyzed by CCK-8 assay; and protein expression levels of fibrosis-related indicators were detected by Western Blot method. A549 cells were purchased from ATCC; CCK-8 kit was purchased from Meilunbio, item number MA0218-3; TGF-β1 was purchased from MCE, item number HY-P70543; primary antibodies: Collagen was purchased from ARG21965, item no. arigobio; α-smooth muscle actin was purchased from CST, item no. mAb #19245; VIMENTN was purchased from CST, item no. mAb #5741; GAPDH was purchased from Yeasen, item no. 30201ES20.\nExperimental methods: first, 8000 cells/well A549 cells were placed in 96-well plates and incubated overnight. On the second day, 0.1% DMSO was added to the control cells, 10 ng/ml TGF-β1 as well as 0.1% DMSO was added to the model group, 10 ng/ml TGF-β1 as well as 1 μM of the compounds (oxy, 1, 2, tet, 3, 4, 6, 58) was added to the treatment group, and the 96-well plates were sterilized and incubated in a constant temperature incubator for 72 hours. Finally, cell injury and growth were observed using a microscope; the viability of the cells was detected by CCK-8 kit."}, "[4]": {"test_system": "2019 novel coronavirus (SARS-CoV-2) original strain", "assay": "Replication inhibitory activity against SARS-CoV-2 original strain in Vero E6 cells (qRT-PCR)", "format": "cell-based", "conditions": "read-out: Inhibition against viral replication of the original strain EC50"}, "[5]": {"test_system": "HCoV OC43 virus", "assay": "Inhibition against HCoV OC43 virus replication", "format": "cell-based, human coronavirus HCoV OC43", "conditions": "for EC50: Betacoronavirus 1, OC43"}, "[6]": {"biological_target": "T1, hERG potassium channel (Homo sapiens, UniProt Q12809)", "T1 construct": "expressed in transfected cells", "T1 sequence (Q12809 whole entry)": "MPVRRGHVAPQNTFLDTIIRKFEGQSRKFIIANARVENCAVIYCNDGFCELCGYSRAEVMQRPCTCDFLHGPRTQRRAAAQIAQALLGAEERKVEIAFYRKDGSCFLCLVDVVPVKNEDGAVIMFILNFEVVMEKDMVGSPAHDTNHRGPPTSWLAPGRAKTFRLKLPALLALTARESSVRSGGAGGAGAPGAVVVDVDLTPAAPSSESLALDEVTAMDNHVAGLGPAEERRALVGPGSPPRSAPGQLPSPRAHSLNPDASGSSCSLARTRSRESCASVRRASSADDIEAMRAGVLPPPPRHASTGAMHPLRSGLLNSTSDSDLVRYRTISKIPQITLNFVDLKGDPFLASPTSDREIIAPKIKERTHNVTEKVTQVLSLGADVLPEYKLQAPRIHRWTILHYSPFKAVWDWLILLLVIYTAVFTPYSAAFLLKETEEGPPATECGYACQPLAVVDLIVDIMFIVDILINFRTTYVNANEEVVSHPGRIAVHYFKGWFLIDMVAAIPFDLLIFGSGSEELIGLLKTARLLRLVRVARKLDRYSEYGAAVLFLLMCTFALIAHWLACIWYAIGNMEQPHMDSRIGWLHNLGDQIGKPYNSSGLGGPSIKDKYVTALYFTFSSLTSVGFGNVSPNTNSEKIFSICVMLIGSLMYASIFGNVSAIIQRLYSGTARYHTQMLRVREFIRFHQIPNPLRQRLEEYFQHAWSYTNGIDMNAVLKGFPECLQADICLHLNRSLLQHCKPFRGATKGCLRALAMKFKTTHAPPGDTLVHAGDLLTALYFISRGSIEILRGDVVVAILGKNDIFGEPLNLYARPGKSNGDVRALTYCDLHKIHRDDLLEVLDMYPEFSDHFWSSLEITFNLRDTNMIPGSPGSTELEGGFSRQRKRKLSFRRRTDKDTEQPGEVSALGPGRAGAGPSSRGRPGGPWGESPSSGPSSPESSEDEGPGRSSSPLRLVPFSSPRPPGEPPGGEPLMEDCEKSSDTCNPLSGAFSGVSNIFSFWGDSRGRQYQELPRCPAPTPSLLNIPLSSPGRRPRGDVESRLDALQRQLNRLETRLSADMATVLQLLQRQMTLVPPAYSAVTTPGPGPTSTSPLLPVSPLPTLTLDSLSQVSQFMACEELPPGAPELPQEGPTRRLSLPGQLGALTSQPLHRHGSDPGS", "assay": "hERG potassium channel whole-cell membrane clamp in CHO cells", "format": "cell-based", "conditions": "for IC50: CHO cells stably expressing hERG, whole-cell membrane clamp", "procedure": "Compounds were given for at least 1 min for each tested concentration, and at least 2 cells (n≥2) were tested per concentration."}, "[7]": {"test_system": "Th1/Th17 differentiation of CD4+T cells", "assay": "CD4+T cell in vitro differentiation assay (Th1 IFN-γ / Th17 IL-17A, flow cytometry)", "design": "inhibitory effect on Th1/Th17 differentiation at lower concentration: dose or concentration left out as unconfirmed", "conditions": "72 h; for inhibitory effect on Th1/Th17 differentiation: 10 μM, IFN-γ/IL-17A by flow cytometry", "protocol": "CD4^+T cell isolation: CD4^+T cells were isolated from the spleens of 7-8 week old C57BL/6 mice using the Mouse CD4^+T Cell Sorting Kit (Dynabeads® Untouched™ Mouse CD4 Cells Isolation Kit, Invitrogen, Catalog nos: 11415D).\nIn vitro differentiation of CD4^+T cells: the isolated CD4^+T cells were inoculated into 96-well plates while different concentrations of compounds were added, and then corresponding cytokines and antibodies were added: anti-CD28 (2 μg/ml), anti-CD3 (2 μg/ml), Anti-IL-4 (10 μg/ml), IL-12 (10 ng/ml), Anti-IFN-γ (10 μg/ml), anti-IL-4 (10 μg/ml), IL-6 (30 ng/ml), TGF-β1 (3 ng/ml), IL-10 (10 ng/ml), IL-23 (10 ng/ml), and TNF-α (10 ng/ml). Cells were cultured in 5% CO2 at 37° C. in a cell culture chamber for 72 h. Cells were collected, stained intracellularly, analyzed by flow cytometry, and tested for IFN-γ/IL-17A content to assess the effect of compounds on CD4^+T differentiation into Th1/Th17 in vitro."}, "[8]": {"test_system": "IL-6, IL-1β, CXCL9 mRNA in Raw 264.7 cells", "assay": "mRNA levels of inflammatory indicators in LPS-induced inflammation model of Raw264.7 cells (Q-PCR)", "format": "cell-based", "conditions": "1 μg/ml LPS, 1 μM compound, 16 hours", "procedure": "In this example, the effect of the compounds of the present invention on the inflammation level of the LPS-induced inflammation model of Raw 264.7 cells was analyzed by cell viability in combination with inflammatory factors; cell viability was analyzed by CCK-8 assay; and mRNA expression levels of inflammation-related indicators were detected by a real-time quantitative PCR (Q-PCR) method. Raw 264.7 cells were purchased from ATCC; CCK-8 kit was purchased from Meilunbio, item no. MA0218-3; LPS was purchased from Sigma, item no. L2630.\nExperimental methods: first, 5*10^4 cells/well Raw 264.7 cells were placed in 12-well plates and incubated overnight. On the second day, 0.1% DMSO was added to the control cells, 1 μg/ml LPS as well as 0.1% DMSO was added to the model group, 1 μg/ml LPS as well as 1 μM of the compounds (oxyacanthine hydrochloride (oxy), 1, 2, tetrandrine (tet), 3, 4, 6, 58) was added to the treatment group, and the 12-well plates were sterilized and incubated in a constant temperature incubator for 16 hours. Cellular mRNA was extracted by lysis using Trizol (Yisheng, 10606ES60) and detected by real-time quantitative PCR after reverse transcription."}, "[9]": {"biological_target": "hNav1.5 sodium channel (Homo sapiens, UniProt Q14524)", "sequence (Q14524 whole entry)": "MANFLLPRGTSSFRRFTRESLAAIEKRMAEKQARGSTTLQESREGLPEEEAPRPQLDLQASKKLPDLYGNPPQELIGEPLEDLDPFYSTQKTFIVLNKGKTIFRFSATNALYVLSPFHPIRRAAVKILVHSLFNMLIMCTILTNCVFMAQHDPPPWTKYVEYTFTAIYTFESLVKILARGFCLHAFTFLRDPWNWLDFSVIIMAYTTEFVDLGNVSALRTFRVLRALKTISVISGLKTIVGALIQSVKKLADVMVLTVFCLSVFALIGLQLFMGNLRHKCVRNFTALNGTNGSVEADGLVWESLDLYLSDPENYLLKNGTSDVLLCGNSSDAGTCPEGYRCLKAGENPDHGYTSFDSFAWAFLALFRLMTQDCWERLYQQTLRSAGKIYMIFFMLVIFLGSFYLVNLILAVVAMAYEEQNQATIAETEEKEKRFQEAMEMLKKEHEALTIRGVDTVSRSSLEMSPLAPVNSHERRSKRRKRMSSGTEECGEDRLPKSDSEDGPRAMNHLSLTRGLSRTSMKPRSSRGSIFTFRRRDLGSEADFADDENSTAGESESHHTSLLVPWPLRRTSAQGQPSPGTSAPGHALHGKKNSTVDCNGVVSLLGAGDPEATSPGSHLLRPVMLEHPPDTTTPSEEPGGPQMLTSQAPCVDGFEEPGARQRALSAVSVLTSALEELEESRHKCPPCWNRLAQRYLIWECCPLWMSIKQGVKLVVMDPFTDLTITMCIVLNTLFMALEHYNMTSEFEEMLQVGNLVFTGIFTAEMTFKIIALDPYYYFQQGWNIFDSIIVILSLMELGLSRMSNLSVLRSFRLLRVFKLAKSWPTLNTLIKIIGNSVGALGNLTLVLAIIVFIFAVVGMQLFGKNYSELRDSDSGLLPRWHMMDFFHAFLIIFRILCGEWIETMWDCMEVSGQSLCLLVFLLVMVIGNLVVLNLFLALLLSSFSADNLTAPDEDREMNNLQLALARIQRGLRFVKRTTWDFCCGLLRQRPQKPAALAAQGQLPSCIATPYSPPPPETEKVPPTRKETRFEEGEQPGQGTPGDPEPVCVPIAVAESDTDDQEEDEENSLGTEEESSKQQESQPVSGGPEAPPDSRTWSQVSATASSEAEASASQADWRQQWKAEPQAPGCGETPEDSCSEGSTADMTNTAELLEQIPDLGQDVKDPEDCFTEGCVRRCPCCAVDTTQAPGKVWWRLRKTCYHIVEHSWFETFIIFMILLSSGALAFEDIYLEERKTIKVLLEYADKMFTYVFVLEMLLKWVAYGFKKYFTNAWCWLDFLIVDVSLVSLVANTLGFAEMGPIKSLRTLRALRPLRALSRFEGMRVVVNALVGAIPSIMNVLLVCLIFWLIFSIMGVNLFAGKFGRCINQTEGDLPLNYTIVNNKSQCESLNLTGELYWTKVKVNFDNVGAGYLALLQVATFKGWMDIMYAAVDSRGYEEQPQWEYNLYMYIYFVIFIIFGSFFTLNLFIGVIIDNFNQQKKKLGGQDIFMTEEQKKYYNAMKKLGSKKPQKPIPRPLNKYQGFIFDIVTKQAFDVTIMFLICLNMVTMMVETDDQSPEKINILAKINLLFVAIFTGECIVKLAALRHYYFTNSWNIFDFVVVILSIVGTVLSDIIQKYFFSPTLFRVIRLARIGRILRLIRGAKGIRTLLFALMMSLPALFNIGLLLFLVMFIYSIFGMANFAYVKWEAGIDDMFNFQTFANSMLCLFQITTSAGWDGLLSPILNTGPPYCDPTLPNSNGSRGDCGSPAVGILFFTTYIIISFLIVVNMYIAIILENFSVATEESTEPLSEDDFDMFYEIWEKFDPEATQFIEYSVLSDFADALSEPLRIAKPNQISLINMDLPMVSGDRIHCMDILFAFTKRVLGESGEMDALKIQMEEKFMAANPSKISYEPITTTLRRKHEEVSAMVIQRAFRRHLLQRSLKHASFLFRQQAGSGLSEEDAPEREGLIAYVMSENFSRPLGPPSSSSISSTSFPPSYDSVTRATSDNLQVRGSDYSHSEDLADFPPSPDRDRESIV", "assay": "Nav1.5 sodium channel whole-cell membrane clamp in CHL cells", "description": "Nav1.5: CHL cells stably expressing hNav1.5 sodium channel was used to record hNav1.5 sodium channel currents by whole-cell membrane clamp technique at room temperature. The glass microelectrodes were made from glass electrode blanks (BF150-86-10, Sutter) by pulling through a puller, and the tip resistance was about 2-5 MΩ after filling the electrode with internal fluid, and the glass microelectrodes were connected to Axopatch 200B (Molecular Devices) membrane clamp amplifier by inserting the glass microelectrodes into the amplifier probe. Clamp voltage and data recording were controlled and recorded by pClamp 10 software via a computer with a sampling frequency of 10 kHz and a filtering frequency of 2 kHz. After obtaining whole-cell recordings, the cells were clamped at −80 mV, given a hyperpolarizing voltage of 200 ms to −120 mV, and then depolarized to −20 mV for 20 ms to evoke a Nav1.5 current. This voltage stimulus was given every 10 s; after the hNav1.5 sodium current was determined to be stabilized (for at least 1 min), begins the dosing process. Concentrations of the sample to be tested were administered continuously starting from low test concentration, and each test concentration was given for 1 min to reach steady state of action or for a maximum of 3 min. A minimum of 3 cells (n≥3) were tested at each concentration of the sample to be tested, and a minimum of 2 cells (n≥2) were tested at each concentration of the positive control.\nExtracellular fluid formulation (mM): 140 NaCl, 5 KCl, 1 CaCl2, 1.25 MgCl2, 10 HEPES and 10 Glucose, adjusting the pH to 7.4 with NaOH.\nIntracellular fluid formulation (mM): 130 CsF, 10 NaCl, 10 EGTA and 10 HEPES, adjusting the pH to 7.2 with CsOH."}, "[10]": {"test_system": "Vero E6 cells", "assay": "Cytotoxicity test on Vero E6 cells (CCK8)", "format": "cell-based", "conditions": "Vero E6 cells", "procedure": "(§1) In this embodiment, the half toxicity concentration of each embodiment on Vero E6 cells was determined by CCK8 kit analysis (CC50)."}, "[11]": {"assay": "Cytotoxicity test on Vero E6 cells (CCK8)", "format": "cell-based", "conditions": "African green monkey; Vero E6 cells, CCK8 kit", "procedure": "as §1"}}, "note": "“Also recorded” adds a separate entry of the source. Read-outs that look alike come from different tables or passages of the source."}
{"compound": "COc1cc2c3cc1Oc1c(OC)c(OC)cc4c1[C@H](Cc1ccc(cc1)Oc1cc(ccc1C(N)=O)C[C@H]3N(C)CC2)N(C)CC4", "note": "[Compound 4]", "values": [{"measurement": "cell viability in TNF-α-induced inflammation model", "setting": "[1]", "value": "did not affect cell viability"}, {"measurement": "IC50", "setting": "[2]", "value": "< 1", "unit": "µM"}, {"measurement": "alleviation of TGF-β1-induced fibrosis in A549 lung epithelial cells (Collagen1, α-SMA by WB)", "setting": "[3]", "value": "alleviated; also recorded: partially alleviate fibrosis"}, {"measurement": "EC50", "setting": "[4]; Severe acute respiratory syndrome coronavirus 2, Vero C1008, Vero E6 cells, MOI 0.01, 24 h p.i., viral copy number by qRT-PCR", "value": "100 to 1000", "unit": "nM"}, {"measurement": "inhibition against human coronavirus HCoV OC43", "setting": "[5]", "value": "strong inhibition"}, {"measurement": "EC50", "setting": "[5]", "value": 5, "unit": "µM"}, {"measurement": "activity against hERG ion channels", "setting": "[6]", "value": "weakly active"}, {"measurement": "IC50", "setting": "[6]; human, CHO cells stably expressing hERG potassium channels, pH 7.4", "value": 20, "unit": "µM"}, {"measurement": "inhibitory effect on Th1/Th17 differentiation", "setting": "[7]", "value": "strong inhibitory effect"}, {"measurement": "inhibition of inflammatory factors (IL-6, IL-1β, CXCL9 mRNA) in LPS-induced inflammation model", "setting": "[8]", "value": "significantly inhibited inflammatory factors; also recorded: significant inhibition"}, {"measurement": "IC50", "setting": "[9]", "value": "> 50", "unit": "µM"}, {"measurement": "activity against Nav1.5 channels", "setting": "[9]", "value": "weakly active"}, {"measurement": "cytotoxicity on Vero E6 cells compared with oxyacanthine hydrochloride", "setting": "[10]", "value": "weaker cytotoxicity than oxyacanthine hydrochloride"}, {"measurement": "IC50", "setting": "[11]", "value": "> 50", "unit": "µM"}]}
{"compound": "CCCCNC(=O)Oc1ccc2cc1Oc1ccc(cc1)C[C@H]1c3c(cc(OC)c(OC)c3Oc3cc4c(cc3OC)CCN(C)[C@@H]4C2)CCN1C", "note": "[Compound 2]", "values": [{"measurement": "cell viability in TNF-α-induced inflammation model", "setting": "[1]", "value": "did not affect cell viability"}, {"measurement": "IC50", "setting": "[2]", "value": "< 10", "unit": "µM"}, {"measurement": "alleviation of TGF-β1-induced fibrosis in A549 lung epithelial cells (Collagen1, α-SMA by WB)", "setting": "[3]", "value": "alleviated; also recorded: partially alleviate fibrosis"}, {"measurement": "EC50", "setting": "[4]; Severe acute respiratory syndrome coronavirus 2, Vero C1008, 24 h", "value": "100 to 1000", "unit": "nM"}, {"measurement": "inhibition against human coronavirus HCoV OC43", "setting": "[5]", "value": "strong inhibition"}, {"measurement": "EC50", "setting": "[5]", "value": 1.2, "unit": "µM"}, {"measurement": "activity against hERG ion channels", "setting": "[6]", "value": "weakly active"}, {"measurement": "IC50", "setting": "[6]", "value": 19, "unit": "µM"}, {"measurement": "inhibitory effect on Th1/Th17 differentiation", "setting": "[7]", "value": "strong inhibitory effect"}, {"measurement": "inhibitory effect on Th1/Th17 differentiation at lower concentration", "setting": "[7]", "value": "strong inhibitory effect"}, {"measurement": "inhibition of inflammatory factors (IL-6, IL-1β, CXCL9 mRNA) in LPS-induced inflammation model", "setting": "[8]", "value": "significantly inhibited inflammatory factors; also recorded: significant inhibition"}, {"measurement": "IC50", "setting": "[9]", "value": "> 10", "unit": "µM"}, {"measurement": "cytotoxicity on Vero E6 cells compared with oxyacanthine hydrochloride", "setting": "[10]", "value": "weaker cytotoxicity than oxyacanthine hydrochloride"}, {"measurement": "IC50", "setting": "[11]", "value": "30 to 50", "unit": "µM"}]}
